For data set [1] the following is noted: 40° C., Solution B. The source says:
(§1) The values of the exponents in the equation derived from the exponential fit are the first order rate constant k1 (in units of days^−1).

How the values of data set [2] were obtained:
The real time stability studies at 5° C. have progressed for about one year thus far.
as §1

Like-named read-outs stand apart in the source and are kept apart here.

For the compound `N[C@@H](CCC(=O)N[C@@H](CS)C(=O)NCC(=O)O)C(=O)O` [L-glutathione], the “time until product specification for L-glutathione approached its limit of expiration” value in data set [1] is “approximately 73 days”; in data set [2] (5° C., from first order fit of 12-15 month real time data) it was “about 100 months”. Moreover, in data set [2] (corresponds to Q10 value of 2.94), the “energy of activation for decomposition” value is 19.0 kcal/mol.

The record behind these values is patent US11291201B2, “Solutions for increasing the stability and shelf life of an organ and tissue preservation solution” (Marizyme, Inc., priority 2013, dated 2022).
